These are literature values, as cited in patent US9956241B2, “Application of American Ginseng to enhance neurocognitive function” (priority 2009, dated 2018).

The subject of data set [1] is synaptosomal uptake of norepinephrine, dopamine, serotonin and GABA.
The test system of data set [2] is central cholinergic nerve endings.
Data set [3] deals with brain serotonin concentrations. Conditions: in vivo.
Data set [4] deals with choline acetyltransferase and nerve growth factor messenger RNA. To be noted: rat brains.
Data set [5] deals with LTP in the hippocampal formation. To be noted: in vivo; rats.
In another data set the test system is plasma corticosterone. Conditions: rodents.
Data set [6] has as its system choline acetyltransferase. To be noted: rodent brains.
The test system of data set [7] is human neuronal nicotinic acetylcholine receptors.

Turning to `CC(C)=CCC[C@](C)(O[C@@H]1O[C@H](CO)[C@@H](O)[C@H](O)[C@H]1O)[C@H]1CC[C@]2(C)[C@@H]1[C@H](O)C[C@@H]1[C@@]3(C)CC[C@H](O)C(C)(C)[C@@H]3[C@@H](O[C@@H]3O[C@H](CO)[C@@H](O)[C@H](O)[C@H]3O[C@@H]3O[C@@H](C)[C@H](O)[C@@H](O)[C@H]3O)C[C@]12C` [Re, ginsenoside Re], in [1], the “synaptosomal uptake of norepinephrine, dopamine, serotonin and GABA” value is recorded as “may inhibit”.

Turning to `CC(C)=CCC[C@](C)(O[C@@H]1O[C@H](CO[C@@H]2O[C@H](CO)[C@@H](O)[C@H](O)[C@H]2O)[C@@H](O)[C@H](O)[C@H]1O)[C@H]1CC[C@]2(C)[C@@H]1[C@H](O)C[C@@H]1[C@@]3(C)CC[C@H](O[C@@H]4O[C@H](CO)[C@@H](O)[C@H](O)[C@H]4O[C@@H]4O[C@H](CO)[C@@H](O)[C@H](O)[C@H]4O)C(C)(C)[C@@H]3CC[C@]12C` [Rb1, ginsenoside Rb1], the “acetylcholine release and reuptake, number of choline uptake sites” value in data set [2] (hippocampus, to a lesser extent cortex) is “modulation”. Also, in data set [2] (isolated Rb1), the acetylcholine release entry is on record as “stimulate acetylcholine release” and the synaptosomal choline uptake entry is “increase synaptosomal choline uptake”. Moreover, the brain serotonin concentrations entry in [3] is “marked alterations”. For the same compound, the “expression of choline acetyltransferase and nerve growth factor messenger RNA” value in data set [4] was “increased expression”. In addition, the “LTP in the hippocampal formation” value in data set [5] is reported as “modulation of LTP”. For the same compound, the “stress-induced increases in plasma corticosterone” value in the data set with plasma corticosterone is “inhibit”. Also, the choline acetyltransferase levels result in data set [6] is listed as “increase choline acetyltransferase levels”.

With `CC(C)=CCC[C@](C)(O[C@@H]1O[C@H](CO)[C@@H](O)[C@H](O)[C@H]1O)[C@H]1CC[C@]2(C)[C@@H]1[C@H](O)C[C@@H]1[C@@]3(C)CC[C@H](O)C(C)(C)[C@@H]3[C@@H](O[C@@H]3O[C@H](CO)[C@@H](O)[C@H](O)[C@H]3O)C[C@]12C` [Rg1, ginsenoside Rg1], the brain serotonin concentrations result in data set [3] is reported as “marked alterations”. In addition, the choline acetyltransferase levels result in data set [6] is recorded as “increase choline acetyltransferase levels”.

Turning to `CC(C)=CCC[C@](C)(O)[C@H]1CC[C@]2(C)[C@@H]1[C@H](O)C[C@@H]1[C@@]3(C)CC[C@H](O)C(C)(C)[C@@H]3[C@@H](O[C@@H]3O[C@H](CO)[C@@H](O)[C@H](O)[C@H]3O[C@@H]3O[C@@H](C)[C@H](O)[C@@H](O)[C@H]3O)C[C@]12C` [Rg2, ginsenoside Rg2], the “interaction with nicotinic receptor subtypes” value in [7] is recorded as “direct interaction”.

`CC(C)=CCC[C@](C)(O[C@@H]1O[C@H](CO)[C@@H](O)[C@H](O)[C@H]1O)[C@H]1CC[C@]2(C)[C@@H]1[C@H](O)C[C@@H]1[C@@]3(C)CC[C@H](O[C@@H]4O[C@H](CO)[C@@H](O)[C@H](O)[C@H]4O[C@@H]4O[C@H](CO)[C@@H](O)[C@H](O)[C@H]4O)C(C)(C)[C@@H]3CC[C@]12C` [Rd, ginsenoside Rd]: in the data set on corticosterone secretion, the corticosterone secretion entry is listed as “affect corticosterone secretion”. Further, the “synaptosomal uptake of norepinephrine, dopamine, serotonin and GABA” value in [1] is “may inhibit”.
